Measured values taken from patent US12303509B2, “Compounds for the treatment of BRAF-associated diseases and disorders” (Pfizer Inc., priority 2020, dated 2025).

Columns and labels:
A375 cells = experiment: Cellular phospho-ERK inhibition assay in A375 cells; format: cell-based; details: Homo sapiens, A-375, A375 cells (head prints A357), 2 hours treatment, read-out: A357 cell IC50
Summary of the method: (§1)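 A375 (DMEM) or H1755 (RPMI) cells in 10% FBS treated 2 h at 37 °C with 9-point series, 66 pM–10 μM, 0.25% DMSO. Phospho-ERK1/2 (Thr202/Tyr204) measured by In Cell Western, normalised to GAPDH and to DMSO and 10 μM binimetinib controls; IC50 by 4-parameter fit.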

H1755 cells = experiment: Cellular phospho-ERK inhibition assay in H1755 cells; format: cell-based; details: Homo sapiens, NCI-H1755, 2 hours treatment, read-out: H1755 Cell IC50
Summary of the method: as §1

[1] = tested on: WM3629 cells (BRAF D594G/NRAS G12D); experiment: Cellular phospho-ERK inhibition assay in WM3629 cells; format: cell-based; details: 1 hour treatment, read-out: IC50 WM3629 pERK
Experimental: The compounds of Example 13, Example 14 and Example 126 were evaluated in a phospho-ERK assay in two mutant BRAF Class III cell lines: NCI-H1666 (BRAF^G466V) and WM3629 cells (BRAF^D594G/NRAS^G12D). NCI-H1666 cells were obtained from the American Type Culture Collection (ATCC, Rockville, MD) and WM3629 cells were obtained from Rockland Immunochemicals (Limerick, PA). Cells were maintained in RPMI growth medium containing 10% FBS.
Cells were harvested according to standard protocols, counted, and plated onto flat-bottom, 96-well tissue culture plates (Costar #3599) at 2.5×10^4 cells/well in 100 μL/well of growth medium containing 10% FBS. After an overnight incubation at 37° C. with 5% CO2 cells were treated for 1 hour at 37° C., 5% CO2 with inhibitors prepared as a 9-point, 1:3.33 fold dilution series with final compound concentrations ranging from 66 pM-10 μM and a constant DMSO concentration of 0.25%. Control wells contained either 0.25% DMSO alone (uninhibited control) or 10 μM binimetinib (complete inhibition control). The levels of phosphorylated ERK were determined using an In Cell Western protocol: following compound incubation, growth medium was discarded, and cells were fixed with 0.4% formaldehyde in PBS for 20 minutes at room temperature. Cells were permeabilized with 100% methanol for 10 minutes at room temperature. Plates were washed with PBS containing 0.05% Tween-20 and blocked for 1 hour at room temperature with LI-COR Blocking Buffer (LI-COR Biosciences; Cat. #927-40000). Plates were then incubated for 2 hours at room temperature with 50 μL of a 1:400 dilution of anti-phospho-ERK1/2 (Thr202/Tyr204) (Cell Signaling; Cat. #9101) and a 1:1000 dilution of anti-GAPDH (Millipore; Cat. #MAB374) in LI-COR blocking buffer containing 0.05% Tween-20. […] Plates were analyzed by reading on an Odyssey CLx infrared scanner. […]
[formula] • Where: • Xmax d Average Uninhibited Controls • Xmin Average Complete Inhibition Controls • IC50 values were then calculated using a 4-parameter fit in XLfit software and are shown in Table A2.

P-gp (MDR1) = P-gp (MDR1) (Homo sapiens (Human), UniProt P08183); experiment: MDR1 LLC-PK1 permeability assay: efflux ratio; format: in vitro ADME; details: pig
Description: Final organic concentration in the assay was 1%.

Sequence of P-gp (MDR1) (P08183 whole entry, species assumed): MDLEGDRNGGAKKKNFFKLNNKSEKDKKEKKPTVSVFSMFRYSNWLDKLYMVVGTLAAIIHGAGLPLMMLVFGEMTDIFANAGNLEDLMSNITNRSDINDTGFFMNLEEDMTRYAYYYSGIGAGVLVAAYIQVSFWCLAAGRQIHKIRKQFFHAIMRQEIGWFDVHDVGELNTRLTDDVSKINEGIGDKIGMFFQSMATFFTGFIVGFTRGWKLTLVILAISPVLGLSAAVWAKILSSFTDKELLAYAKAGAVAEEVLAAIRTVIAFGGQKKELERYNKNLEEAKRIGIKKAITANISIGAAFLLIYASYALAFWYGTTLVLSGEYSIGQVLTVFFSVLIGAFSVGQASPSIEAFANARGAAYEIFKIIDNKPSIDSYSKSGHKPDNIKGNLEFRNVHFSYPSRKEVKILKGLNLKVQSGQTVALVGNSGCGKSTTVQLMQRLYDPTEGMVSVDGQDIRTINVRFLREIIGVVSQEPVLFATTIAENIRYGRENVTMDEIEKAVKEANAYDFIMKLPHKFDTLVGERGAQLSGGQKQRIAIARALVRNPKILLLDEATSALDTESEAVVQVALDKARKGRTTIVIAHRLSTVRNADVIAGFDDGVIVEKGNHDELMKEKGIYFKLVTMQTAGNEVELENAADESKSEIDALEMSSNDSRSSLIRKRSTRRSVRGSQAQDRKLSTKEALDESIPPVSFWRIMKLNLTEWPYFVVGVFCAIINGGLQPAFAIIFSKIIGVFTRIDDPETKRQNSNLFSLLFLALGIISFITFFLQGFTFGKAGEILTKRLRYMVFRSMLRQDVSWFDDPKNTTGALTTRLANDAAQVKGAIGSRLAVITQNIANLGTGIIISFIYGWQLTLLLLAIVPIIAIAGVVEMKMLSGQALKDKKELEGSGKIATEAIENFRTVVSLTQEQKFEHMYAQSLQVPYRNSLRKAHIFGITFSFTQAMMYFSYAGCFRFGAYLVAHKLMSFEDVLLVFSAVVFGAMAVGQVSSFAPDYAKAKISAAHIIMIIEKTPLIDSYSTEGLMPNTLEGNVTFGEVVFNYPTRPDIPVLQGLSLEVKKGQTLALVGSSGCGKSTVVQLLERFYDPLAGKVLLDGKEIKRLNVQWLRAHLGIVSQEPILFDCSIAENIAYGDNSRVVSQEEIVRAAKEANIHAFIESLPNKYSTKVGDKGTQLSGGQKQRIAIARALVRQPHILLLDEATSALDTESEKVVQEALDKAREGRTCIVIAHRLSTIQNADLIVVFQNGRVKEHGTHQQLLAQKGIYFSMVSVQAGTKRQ

Row | Compound | IC50 (A375 cells) | IC50 (H1755 cells) | IC50 [1] | efflux ratio at 2 h, 1 µM (P-gp (MDR1))
1 | Cn1cnc2ccc(Nc3c(F)ccc(NS(=O)(=O)N4CC[C@@H](F)C4)c3Cl)c(F)c2c1=O [Example 14, (R)-N-(2-chloro-4-fluoro-3-((5-fluoro-3-methyl-4-oxo-3,4-dihydroquinazolin-6-yl)amino)phenyl)-3-fluoropyrrolidine-1-sulfonamide] | 3 nM | 21 nM | 0.2 nM | 3.2
2 | Cn1cnc2ccc(Nc3c(F)ccc(NS(=O)(=O)N4CC5CC4C5)c3Cl)c(F)c2c1=O [Example 13, N-(2-chloro-4-fluoro-3-((5-fluoro-3-methyl-4-oxo-3,4-dihydroquinazolin-6-yl)amino)phenyl)-2-azabicyclo[2.1.1]hexane-2-sulfonamide] | 6 nM | 78 nM | 0.7 nM | 1.5
